From patent US7329757B2 (Bayer Aktiengesellschaft, priority 2000, dated 2008) come the findings set out here.

Data set [1] can be described thus: logP determination by HPLC on reversed-phase column (C 18), EEC Directive 79/831 Annex V.A8. Type of data set: physicochemical. How it is done:
The calibration was carried out using unbranched alkan-2-ones (having 3 to 16 carbon atoms) with known logP values (determination of the logP values by the retention times using linear interpolation between two successive alkanones).

In data set [2] the test system is weeds. In words: Pre-emergence test (Example A), damage to weeds. Type of data set: in vivo. The conditions noted are these: soil sprayed 24 hours after sowing, rated after three weeks. How it is done: (§1) To produce a suitable preparation of active compound, 1 part by weight of active compound is mixed with the stated amount of solvent, the stated amount of emulsifier is added and the concentrate is diluted with water to the desired concentration.
Seeds of the test plants are sown in normal soil. After 24 hours, the soil is sprayed with the preparation of active compound such that the particular amount of active compound desired is applied per unit area. The concentration of active compound in the spray liquors is chosen so that the particular amount of active compound desired is applied in 1000 litres of water per hectare.
After three weeks, the degree of damage to the plants is rated in % damage in comparison to the development of the untreated control.

Data set [3] concerns weeds. The experiment in a line: Post-emergence test (Example B), damage to weeds. Type of data set: in vivo. The conditions noted are these: test plants of 5-15 cm sprayed, rated after three weeks. The procedure: as §1
Test plants of a height of 5-15 cm are sprayed with the preparation of active compound such that the particular amounts of active compound desired are applied per unit area. The concentration of the spray liquor is chosen so that the particular amounts of active compound desired are applied in 1000 l of water/ha.
After three weeks, the degree of damage to the plants is rated in % damage in comparison to the development of the untreated controls.

With `O=c1ccc(C(F)(F)F)cn1-c1cccc(C(F)(F)F)c1` [IX-35, 5-trifluoromethyl-1-(3-trifluoromethyl-phenyl)-2(1H)-pyridinone], in data set [1] (reversed-phase HPLC column (C 18); labelled a): acidic range, 0.1% aqueous phosphoric acid/acetonitrile gradient, 43° C.), the chromatographic logP was found to be 2.78.
`Cc1ccc(S(=O)(=O)/N=c2\ccc(C)cn2-c2cccc(C(F)(F)F)c2)cc1` [Example 7, 4-methyl-N-[5-methyl-1-(3-trifluoromethylphenyl)-2(1H)-pyridinylidene]-benzenesulphonamide] showed a melting point of 174 °C.
Turning to `Cc1ccc(=NC(=O)OC(C)C)n(-c2cccc(C(F)(F)F)c2)c1` [Example 2], in the data set on weeds [2], the “activity against weeds (degree of damage)” value (shortened to “activity against weeds”) is given as “strong activity against weeds”. This compound had a chromatographic logP in data set [1] (HPLC, range (acidic/neutral) not labelled) of 1.59.
`Cc1cc/c(=N\C2CC2)n(-c2cccc(C(F)(F)F)c2)c1` [Example 8, N-cyclopropyl-5-methyl-1-(3-trifluoromethylphenyl)-2(1H)-pyridineimine] returned a chromatographic logP in data set [1] (reversed-phase HPLC column (C 18), HPLC, range (acidic/neutral) not labelled) of 1.51.
`Cc1ccc(=NS(=O)(=O)C(F)(F)F)n(-c2cccc(C(F)(F)F)c2)c1` [Example 5, N-[5-methyl-1-(3-trifluoromethyl-phenyl)-2(1H)-pyridinylidene]-trifluoromethanesulphonamide] gave a melting point of 206 °C.
In turn, `Cc1cc/c(=N\C(=O)C(F)(F)F)n(-c2cccc(C(F)(F)F)c2)c1` [Example 1, 2,2,2-trifluoro-N-[5-methyl-1-(3-trifluoromethylphenyl)-2(1H)-pyridinylidene]-acetamide] displayed a melting point of 115 °C. Also, the “activity against weeds” value with weeds [3] was “strong activity against weeds”. Further, in the data set with weeds [2], the “activity against weeds” value is listed as “strong activity against weeds”.
Turning to “5-methyl-1-(2,3-difluoromethylenedioxy-phenyl)-2(1H)-pyridinone [IX-28]”, in data set [1], the logP was 3.95.
On to `Cc1ccc(=O)n(-c2cccc(C(F)(F)F)c2)c1` [IX-1, 5-methyl-1-(3-trifluoromethyl-phenyl)-2(1H)-pyridinone], for which the melting point came to 95 °C. Also, the “activity against weeds” value in the data set on weeds [3] is listed as “strong activity against weeds”. For the same compound, the “activity against weeds” value with weeds [2] was “strong activity against weeds”.
`Cc1cccn(-c2cccc(C(F)(F)F)c2)c1=O` [IX-34, 3-methyl-1-(3-trifluoromethyl-phenyl)-2(1H)-pyridinone] came in with a melting point of 122 °C.
On the same count and under the same terms, the result for `Cc1cc/c(=N\c2nnc(C(F)(F)F)s2)n(-c2cccc(C(F)(F)F)c2)c1` [Example 6, N-(5-trifluoromethyl-1,3,4-thiadiazol-2-yl)-5-methyl-1-(3-trifluoromethyl-phenyl)-2(1H)-pyridinimine] reads 179 °C.
For `Cc1cc/c(=N\C#N)n(-c2cccc(C(F)(F)F)c2)c1` [Example 3, 5-methyl-1-(3-trifluoromethyl-phenyl)-2(1H)-pyridinylidenecyanamide], the melting point was 165 °C. For the same compound, the “activity against weeds” value in the data set with weeds [3] is listed as “strong activity against weeds”. Besides, the “activity against weeds” value in the data set with weeds [2] was “strong activity against weeds”.
With `CNC(=O)/N=c1\ccc(C)cn1-c1cccc(C(F)(F)F)c1` [Example 4, N-methyl-N′-[5-methyl-1-(3-trifluoromethylphenyl)-2(1H)-pyridinylidene]-urea], the melting point turned out to be 114 °C.

In general, chromatographic logP refers to a lipophilicity value derived from retention on a column. As a reminder, the melting point is the temperature of the solid-liquid transition. The logP is a log measure of how a compound divides between an organic and an aqueous phase. Lower therefore signals a more hydrophilic compound.
